Test results from the NIST ThermoML archive (doi:10.1007/s10765-012-1159-3).
Numbers after ± are expanded uncertainties.

Conditions: 101.33 kPa, Liquid; for kinematic viscosity: Capillary tube (Ostwald / Ubbelohde) method; for mass density: Vibrating tube method

Row | kinematic viscosity (293.15 K) [m2/s] | mass density (293.15 K) [kg/m3] | kinematic viscosity (298.15 K) [m2/s] | mass density (298.15 K) [kg/m3] | SMILES
1 | 4.7e-07 ± 5.6e-09 | 659.4 ± 0.6 | 4.49e-07 ± 5.5e-09 | 654.9 ± 0.6 | CCCCCC [hexane]
2 | 7.734e-07 ± 7.4e-09 | 702.5 ± 0.6 | 7.313e-07 ± 7.1e-09 | 698.5 ± 0.6 | CCCCCCCC [octane]

The next lines start with the compound.

Row | SMILES | kinematic viscosity (293.15 K) [m2/s] | mass density (293.15 K) [kg/m3] | kinematic viscosity (298.15 K) [m2/s] | mass density (298.15 K) [kg/m3]
3 | C1CCCCC1 [cyclohexane] | 1.256e-06 ± 1.1e-08 | 778.7 ± 0.6 | 1.154e-06 ± 1e-08 | 773.9 ± 0.6
4 | CCc1ccccc1 [ethylbenzene] | 7.767e-07 ± 7.4e-09 | 867.1 ± 0.6 | 7.323e-07 ± 7.2e-09 | 862.7 ± 0.6
5 | Cc1ccccc1 [toluene] | 6.8e-07 ± 6.8e-09 | 866.7 ± 0.6 | 6.41e-07 ± 6.6e-09 | 862 ± 0.6
